Data on 18 molecules can be found in patent US6573076B1, “Gene, group of genes, and novel β-glucosidase” (Ajinomoto Co., Inc., priority 1997, dated 2003).

Like-named read-outs stand apart in the source and are kept apart here.

Data set [1] addresses T1, β-glucosidase (G3ase) (Komagataeibacter sucrofermentans, UniProt O24749). In words: Effect of metal ions and chemical agents on β-glucosidase (G3ase) activity. The class given is biochemical, Acetobacter xylinum subsp. sucrofermentans BPR 2001. Conditions: for activity at 1000 µM: read-out: Relative activity (%). As to the method: After reaction at 30° C. for 2 hr, a reaction solution (300 μl) of a glucose-measuring kit (Glucose CII test Wako: Wako Pure Chemical Industries, Ltd.) was added to the mixture, and reacted for 15 min at a room temperature, followed by the determination of an amount of glucose based on absorbance at 505 nm.

For data set [2], the target named is T1, β-glucosidase (G3ase). Put plainly: Reactivity of G3ase with cellulosic substrates (glucose produced). Type of data set: biochemical, Acetobacter xylinum subsp. sucrofermentans BPR 2001.
For data set [3], the target named is T1, β-glucosidase (G3ase). Type of data set: biochemical, Acetobacter xylinum subsp. sucrofermentans BPR 2001.
For data set [4], the target named is T1, β-glucosidase (G3ase). In words: Inhibition constants of G3ase inhibitors. The class given is biochemical, Acetobacter xylinum subsp. sucrofermentans BPR 2001.
Substrate in data set [5]: OC[C@H]1O[C@@H](O[C@H]2[C@H](O)[C@@H](O)[C@H](O[C@H]3[C@H](O)[C@@H](O)[C@H](O[C@H]4[C@H](O)[C@@H](O)[C@H](O[C@H]5[C@H](O)[C@@H](O)C(O)O[C@@H]5CO)O[C@@H]4CO)O[C@@H]3CO)O[C@@H]2CO)[C@H](O)[C@@H](O)[C@@H]1O
In words: purified protein, by the assay type. Type of data set: biochemical, Acetobacter xylinum subsp. sucrofermentans BPR 2001. As to conditions: other: substrate of G3ase.

Substrate in data set [6]: OC[C@H]1O[C@@H](O[C@H]2[C@H](O)[C@@H](O)[C@H](O[C@H]3[C@H](O)[C@@H](O)[C@H](O[C@H]4[C@H](O)[C@@H](O)[C@H](O[C@H]5[C@H](O)[C@@H](O)[C@H](O[C@H]6[C@H](O)[C@@H](O)C(O)O[C@@H]6CO)O[C@@H]5CO)O[C@@H]4CO)O[C@@H]3CO)O[C@@H]2CO)[C@H](O)[C@@H](O)[C@@H]1O
Put plainly: purified protein, by the assay type. Conditions: other: substrate of G3ase.

Substrate in data set [7]: OC[C@H]1O[C@@H](O[C@H]2[C@H](O)[C@@H](O)[C@H](O[C@H]3[C@H](O)[C@@H](O)C(O)O[C@@H]3CO)O[C@@H]2CO)[C@H](O)[C@@H](O)[C@@H]1O
In words: purified protein, by the assay type. As to conditions: other: substrate of G3ase.

Substrate in data set [8]: OC[C@H]1O[C@@H](O[C@H]2[C@H](O)[C@@H](O)[C@H](O[C@H]3[C@H](O)[C@@H](O)[C@H](O[C@H]4[C@H](O)[C@@H](O)C(O)O[C@@H]4CO)O[C@@H]3CO)O[C@@H]2CO)[C@H](O)[C@@H](O)[C@@H]1O
Put plainly: purified protein, by the assay type. Conditions: other: substrate of G3ase.

Setting [9] is: compound 1 mM, non-added sample = 100%.
Where [10] appears, read: metal ions and chemical agents 1 mM.

Consider `O=C(O)CI` [IAA, iodo acetate], for which the “Relative activity (%)” value on β-glucosidase (G3ase) [1] (setting [9]) is reported as 126.5%. Also, at β-glucosidase (G3ase) [1] (setting [10]), the “Effect on β-glucosidase (G3ase) activity (in words)” value (from here on “Effect on β-glucosidase”) is listed as “did not affect it adversely”.

As for `O=S(=O)([O-])[O-].[Zn+2]` [ZnSO4], the “Relative activity (%)” value at β-glucosidase (G3ase) [1] (setting [9]) is recorded as 90.4%.

With `O=S(=O)([O-])[O-].[Mg+2]` [MgSO4], at β-glucosidase (G3ase) [1] (setting [9]), the “Relative activity (%)” value is given as 95.2%.

On to `[Ca+2].[Cl-].[Cl-]` [CaCl2], for which, at β-glucosidase (G3ase) [1] (setting [9]), the “Relative activity (%)” value is 100%.

Consider `O=C(O)CN(CCN(CC(=O)O)CC(=O)O)CC(=O)O` [EDTA, ethylene diamine tetra acetate], for which, at β-glucosidase (G3ase) [1], the “Effect on β-glucosidase” value is “did not affect it adversely” and the “Relative activity (%)” value was found to be 100%.

On to `O=S(=O)([O-])[O-].[Fe+2]` [FeSO4], for which, at β-glucosidase (G3ase) [1] (setting [9]), the “Relative activity (%)” value stood at 91.6%.

Turning to `O=S(=O)([O-])[O-].[Mn+2]` [MnSO4], the “Relative activity (%)” value at β-glucosidase (G3ase) [1] (setting [9]) amounted to 114.5%.

Consider `OC[C@H]1O[C@@H](O[C@H]2[C@H](O)[C@@H](O)[C@H](O[C@H]3[C@H](O)[C@@H](O)C(O)O[C@@H]3CO)O[C@@H]2CO)[C@H](O)[C@@H](O)[C@@H]1O` (some centres unmarked) [G3, cellotriose], for which the “percent ratio of produced glucose against total substrate added” value (shortened to “percent ratio of produced glucose”) on β-glucosidase (G3ase) [2] (reaction time 2 hr) was found to be 13.1%; at β-glucosidase (G3ase) [2] (reaction time 24 hr), 17.5%.

Take `CCCCCCCCCCCCOS(=O)(=O)[O-].[Na+]` [SDS, sodium dodecyl sulfate]: at β-glucosidase (G3ase) [1] (setting [9]), the activity at 1000 µM worked out at 31.3%.

As for `[Cl][Hg][Cl]` [HgCl2], on β-glucosidase (G3ase) [1] (setting [9]), the “Relative activity (%)” value is on record as 85.5%.

Turning to `O=S(=O)([O-])[O-].[Cu+2]` [CuSO4], the “Relative activity (%)” value on β-glucosidase (G3ase) [1] (setting [9]) turned out to be 115.7%.

For `OC[C@H]1O[C@@H](O[C@H]2[C@H](O)[C@@H](O)[C@H](O[C@H]3[C@H](O)[C@@H](O)[C@H](O[C@H]4[C@H](O)[C@@H](O)[C@H](O[C@H]5[C@H](O)[C@@H](O)[C@H](O[C@H]6[C@H](O)[C@@H](O)C(O)O[C@@H]6CO)O[C@@H]5CO)O[C@@H]4CO)O[C@@H]3CO)O[C@@H]2CO)[C@H](O)[C@@H](O)[C@@H]1O` (some centres unmarked) [G6, cellohexaose], the “percent ratio of produced glucose” value came to 24.3% at β-glucosidase (G3ase) [2] (reaction time 2 hr) and 28.2% on β-glucosidase (G3ase) [2] (reaction time 24 hr).

For `O=C1CCC(=O)N1Br` [NBS, N-bromosuccinimide], on β-glucosidase (G3ase) [1] (setting [9]), the activity at 1000 µM is 0%. Besides, the “Effect on β-glucosidase” value on β-glucosidase (G3ase) [1] (setting [10]) is “completely inactivated”.

Turning to `OCCS` [2ME, 2-mercaptoethanol], the “Relative activity (%)” value on β-glucosidase (G3ase) [1] (setting [9]) came to 106%. Further, the “Effect on β-glucosidase” value on β-glucosidase (G3ase) [1] (setting [10]) is on record as “did not affect it adversely”.

For the molecule cellobiose [G2], the “degrading activity of G3ase compared to the other cellooligosaccharides (in words)” value on β-glucosidase (G3ase) [3] is “very low”. The “ko (molecular activity)” value at β-glucosidase (G3ase) [3] (substrate of G3ase) was found to be 3.8 s⁻¹. The “percent ratio of produced glucose” value on β-glucosidase (G3ase) [2] (reaction time 2 hr) is listed as 0.4%; at β-glucosidase (G3ase) [2] (reaction time 24 hr) it was 5.2%.

In the case of `O[C@H]1[C@H](O)[C@@H](O)[C@@H]2O[C@@H]2[C@@H]1O` (relative stereo) [Conduritol-βepoxide], the Ki (usually a dissociation constant, usually derived from enzyme kinetics or from competition with a known ligand) on β-glucosidase (G3ase) [4] came to 700 µM. In addition, the figures for the Type of inhibition entry at β-glucosidase (G3ase) [4] and on β-glucosidase (G3ase) [4] (listed as conduritol-β epoxide) were “Competitive” and “competitively inhibited”, respectively.

`O=C1O[C@H](CO)[C@@H](O)[C@H](O)[C@H]1O` [Glucono-δ-lactone]: at β-glucosidase (G3ase) [4], the affinity, expressed as Ki, was 760 µM and the Type of inhibition result was “Competitive”. Moreover, the Type of inhibition entry on β-glucosidase (G3ase) [4] (listed as glucon-o-δ-lactone) was “competitively inhibited”.

B1: β-glucosidase (G3ase) (Komagataeibacter sucrofermentans) (protein)
chain: RHAHDGGGDQADARARQVLASMSLEDKMSLLFSVDGGGFNGSVAPPGGLGSAAYLRAPQGSGLPDLQISDAGLGVRNPAHIRRNGEAVSLPSGQSTASTWDMDMARQAGVMIGREAWQSGFNILLGGGADLTRDPRGGRNFEYAGEDPLQTGRMVGSTIAGVQSQHVISTLKHYAMNDLETSRMTMSADIDPVAMRESDLLGFEIALETGHPGAVMCSYNRVNDLYACENPYLLNKTLKQDWHYPGFVMSDWGATHSSARAALAGLDQESAGDHTDARPYFRTLLAADVKAGRVPEARINDMAERVVRALFAAGLVDHPAQRGPLDVVTDTLVAQKDEEEGAVLLRNQGNILPLSPTARIAVIGGHADAGVISGGGSSQVDPIGGEAVKGPGKKEWPGDPVYFPSSPLKAMQAEAPGARITYDPGTSIASAVRAARAADVVVVYATQFTFEGMDAPSMHLDDNADALITAVAAANPRTVVVMETGDPVLMPWNSSVAGVLEAWFPGSGGGPAIARLLFGKVAPSGHLTMTFPQAESQLAHPDIAGVTADNVFEMQFHTDQELVYDEGSDVGYRWFDRNHFKPLYPFGYGLTYTTFSTDGLKVTERHGQVTATFNVHNTGTRAGVDVPQVYVGLPDGGARRLAGWQRISLAPGESRQVSVQLEPRLLAHFDGKHDRWSVPSGTFRVWLASCATDDSQQTTMHLHGRTMAP
For the molecule B1, the Km (usually the substrate concentration at which the rate is half of its maximum) came to 1490 µM in data set [5], 1310 µM in data set [6], 3730 µM in data set [7] and 2100 µM in data set [8]. In addition, the kcat (commonly the maximal rate divided by the concentration of active sites) amounted to 32.1 s⁻¹ in data set [5], 31.0 s⁻¹ in data set [6], 29.8 s⁻¹ in data set [7] and 38.9 s⁻¹ in data set [8].
